Consider 18 compounds from patent publication US20230102488A1, “COMPOUNDS AND THEIR USE FOR THE TREATMENT OF ALPHA1-ANTITRYPSIN DEFICIENCY” (Z Factor Limited, priority 2019, published 2023).

The structures appear in SMILES notation.

One test deals with T1, Z A1AT (Homo sapiens, UniProt P01009, E366K).
T1 construct: expressed in transfected cells; host or cells: HEK-Z cells (human embryonic kidney cell line)
T1 sequence (P01009 25-418 E366K): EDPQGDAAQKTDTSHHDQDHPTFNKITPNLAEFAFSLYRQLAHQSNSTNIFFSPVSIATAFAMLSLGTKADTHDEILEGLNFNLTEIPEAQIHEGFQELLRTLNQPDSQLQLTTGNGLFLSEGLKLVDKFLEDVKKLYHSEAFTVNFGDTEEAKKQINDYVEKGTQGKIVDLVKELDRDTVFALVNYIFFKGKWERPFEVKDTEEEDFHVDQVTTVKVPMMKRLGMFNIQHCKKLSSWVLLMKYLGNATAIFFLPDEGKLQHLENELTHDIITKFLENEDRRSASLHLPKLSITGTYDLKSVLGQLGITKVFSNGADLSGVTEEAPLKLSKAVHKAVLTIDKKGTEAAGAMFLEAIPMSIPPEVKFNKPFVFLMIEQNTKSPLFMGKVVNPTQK
Briefly: A1AT cell secretion assay using HEK-Z cells (A1AT ELISA of supernatants). Format: cell-based. The settings on record: 48 h, read-out: Median A1AT % increase over vehicle at 300 nM. Here is the method:
HEK-Z cells, a human embryonic kidney cell line stably transfected with the human Z A1AT gene, were plated into 96 well plates (3.0×10^5 cells/ml with 200 μl of media/well) overnight at 37° C. in a humidified atmosphere containing 5% CO2. Following incubation cells were washed with 200 μl serum-free media three times and media was replaced with treatments in quadruplicate using serum free media containing either vehicle, 10 μM suberanilohydroxamic acid (SAHA) or a compound of the invention ([…]) for 48 h in a 37° C. incubator in a final volume of 200 μl. At the end of the incubation step the supernatants were removed from the wells, centrifuged at 1000×g at 4° C. for 10 min and were assayed for human A1AT levels by ELISA (Human Serpin A1/α1-antitrypsin duo set ELISA, R& D Systems, DY1268) per manufacturer's instructions.
Briefly, a 96 well plate was coated with human A1AT capture antibody overnight at room temperature (1:180 dilution from stock, 100 μl final volume/well). The capture antibody was then removed and wells washed three times with 300 μl wash buffer (0.05% Tween 20 in PBS) and then 200 μl reagent diluent ([…]) was incubated in each well for 1 h at room temperature. Diluted samples, standards (125, 250, 500, 1000, 2000, 4000 and 8000 pg/ml A1AT) or blanks were then added to each well in duplicate and the plates were covered with a plate sealer and left at room temperature for 2 h. At the end of the sample incubation step, samples were removed and all wells washed as previously and 100 μl detection antibody (1:180 dilution from stock) was added to each well and incubated for a further 2 h at room temperature. Following incubation with detection antibody, supernatant was removed and wells were washed as previously and 100 μl streptavidin-HRP solution (1:200 dilution from stock) was added to each well for 20 min in the dark. After which, 50 μl stop solution (2M H2SO4) was added and optical density (OD) of each well was read at 450 nm with 570 nm blank subtracted from each well using a microplate reader. A 4 parameter logistic curve was constructed using GraphPad Prism 7 and A1AT concentrations were determined in each sample by interpolation from a standard curve and multiplying by the appropriate dilution factor.
(In an ELISA, binding on a coated surface is turned into a signal by an enzyme label.)
As to `CNC(=O)c1ccc(Cn2cnc3ccccc3c2=O)cc1` [Example 5, N-Methyl-4-((4-oxoquinazolin-3(4H)-yl)methyl)benzamide], the activation at 0.3 µM is 180%.

As to `CC(C)N(C)C(=O)c1ccc(Cn2cnc3ccccc3c2=O)cc1` [Example 15, N-isopropyl-N-methyl-4-((4-oxoquinazolin-3(4H)-yl)methyl)benzamide], the activation at 0.3 µM amounted to 190%.

As for `CN(Cc1ccccc1)C(=O)c1ccc(Cn2cnc3ccccc3c2=O)cc1` [Example 16, N-benzyl-N-methyl-4-((4-oxoquinazolin-3(4H)-yl)methyl)benzamide], the activation at 0.3 µM was 160%.

Consider `CN(CC(F)(F)F)C(=O)c1ccc(Cn2cnc3ccccc3c2=O)cc1` [Example 17, N-methyl-4-((4-oxoquinazolin-3(4H)-yl)methyl)-N-(2,2,2-trifluoroethyl)benzamide], for which the activation at 0.3 µM is 170%.

Staying with this test, now noted: HEK-Z cells, 300 nM, 48 h, secreted human A1AT in supernatant by ELISA; read-out: Median A1AT % increase over vehicle at 300 nM.
Consider `CCN(C)C(=O)c1ccc(Cn2cnccc2=O)cc1` [Example 1, N-Ethyl-N-methyl-4-((6-oxopyrimidin-1(6H)-yl)methyl)benzamide], for which the activation at 0.3 µM was determined as 330%.

`O=C(c1ccc(Cn2cnccc2=O)cc1)N1CCCC1` [Example 2, 3-(4-(Pyrrolidine-1-carbonyl)benzyl)pyrimidin-4(3H)-one]: the activation at 0.3 µM is 350%.

In the case of `O=C(c1ccc(Cn2cnccc2=O)cc1)N1CCOCC1` [Example 3, 3-(4-(Morpholine-4-carbonyl)benzyl)pyrimidin-4(3H)-one], the activation at 0.3 µM turned out to be 280%.

Turning to `CN1CCN(C(=O)c2ccc(Cn3cnccc3=O)cc2)CC1` [Example 4, 3-(4-(4-Methylpiperazine-1-carbonyl)benzyl)pyrimidin-4(3H)-one], the activation at 0.3 µM is 390%.

On to `CNC(=O)c1ccc(Cn2cnc3ccc(Cl)cc3c2=O)cc1` [Example 6, 4-((6-chloro-4-oxoquinazolin-3(4H)-yl)methyl)-N-methylbenzamide], for which the activation at 0.3 µM came to 200%.

Take `CC(C)N(C)C(=O)c1ccc(Cn2cnccc2=O)cc1` [Example 7, N-isopropyl-N-methyl-4-((6-oxopyrimidin-1(6H)-yl)methyl)benzamide]: the activation at 0.3 µM was 160%.

Regarding `CN(Cc1ccccc1)C(=O)c1ccc(Cn2cnccc2=O)cc1` [Example 8, N-benzyl-N-methyl-4-((6-oxopyrimidin-1(6H)-yl)methyl)benzamide], the activation at 0.3 µM was found to be 150%.

For `CN(CC(F)(F)F)C(=O)c1ccc(Cn2cnccc2=O)cc1` [Example 9, N-methyl-4-((6-oxopyrimidin-1(6H)-yl)methyl)-N-(2,2,2-trifluoroethyl)benzamide], the activation at 0.3 µM came out at 170%.

For `NC(=O)c1ccc(Cn2cnccc2=O)cc1` [Example 10, 4-((6-oxopyrimidin-1(6H)-yl)methyl)benzamide], the activation at 0.3 µM is 260%.

`CCN(CC)C(=O)c1ccc(Cn2cnccc2=O)cc1` [Example 11, N,N-diethyl-4-((6-oxopyrimidin-1(6H)-yl)methyl)benzamide]: the activation at 0.3 µM was 230%.

Regarding `CC(C)NC(=O)c1ccc(Cn2cnccc2=O)cc1` [Example 12, N-isopropyl-4-((6-oxopyrimidin-1(6H)-yl)methyl)benzamide], the activation at 0.3 µM was found to be 210%.

Regarding `O=C(NCc1ccc(F)cc1)c1ccc(Cn2cnccc2=O)cc1` [Example 13, N-(4-fluorobenzyl)-4-((6-oxopyrimidin-1(6H)-yl)methyl)benzamide], the activation at 0.3 µM turned out to be 190%.

On to `O=C(NCC(F)(F)F)c1ccc(Cn2cnccc2=O)cc1` [Example 14, 4-((6-oxopyrimidin-1(6H)-yl)methyl)-N-(2,2,2-trifluoroethyl)benzamide], for which the activation at 0.3 µM is 180%.

In the case of `Cc1ncn(Cc2ccc(C(=O)N(C)C)cc2)c(=O)c1C` [Example 18, 4-((4,5-dimethyl-6-oxopyrimidin-1(6H)-yl)methyl)-N,N-dimethylbenzamide], the activation at 0.3 µM turned out to be 170%.
